The source of these data is patent US12374421B2, “Bioinformatic processes for determination of peptide binding” (priority 2013, dated 2025).

One assay deals with RL9-pulsed splenocytes. Details: species or system mice. The settings on record: mouse, in vivo.
Another assay concerns MHC I molecules. The settings on record: in vivo; cited from earlier work.

With RYCINSASL (SEQ ID NO: 28419) [RL9], the “response pattern after immunization” value in the assay on RL9-pulsed splenocytes was “protective response pattern”. Moreover, the “MHC I presentation” value in the assay on MHC I molecules was “presented on MHC I molecules”.
